The values that follow come from PMC8447932 (Chemical Science, 2021).

For this experiment, the system named is spontaneously hypertensive (SHR) male rats. The experiment in a line: Blood pressure in SHR rats after single PO administration. Particulars: 3 mg kg−1 per os once. It is filed as in vivo, rat.

In the case of `COc1cc2nc(N3CCN(C(=O)C4CCCO4)CC3)nc(N)c2cc1OC` (centres unmarked) [compound 74, terazosin], the “systolic BP lowering effect in comparison with the vehicle at 120 min” value (120 min time point) was “no statistically significant activity”. For the same molecule, under “after 15 min and 60 min of treatment”, the “systolic BP decrease in comparison with corresponding vehicle groups” value is listed as “significant systolic BP decrease”.
